Results: PMC5602538, “Assessment of the Drug Interaction Potential of Unconjugated and GalNAc3-Conjugated 2′-MOE-ASOs” (Molecular Therapy. Nucleic Acids, 2017)
{GalNAc3} = trishexylamino-C6 triantennary GalNAc conjugate; e = 2'-O-(2-methoxyethyl) (MOE); d = 2'-deoxy (DNA)

Columns and labels:
P-gp = system: T1, P-gp; experiment: P-gp substrate study, bi-directional flux in MDCK-MDR1 cells; format: in vitro ADME; conditions: 10 μM ASO, Papp B to A / Papp A to B
T1 construct: host or cells: MDCK-MDR1 (MDCK cells stably transfected with MDR1)
Method: MDCK-MDR1 cells and MDCK-II cells transfected with BCRP were washed with HBSS at 37°C. Wells of the culture plate served as the apical compartment, and 150 μL of HBSS solutions was added to the apical wells. These solutions also contain one of the following: vehicle (for probe substrate controls), 100 μM test article (for test article inhibition experiments), 1 μM Ko143 (for BCRP inhibition), or 3 μM elacridar (for P-gp inhibition). A 96-well receiver tray was prepared with each well containing 300 μL of buffer solution corresponding to the apical wells. Receiver tray wells served as the basal compartment. The plate and receiver tray were assembled and incubated at 37°C for 30 min. The solution was then aspirated from the apical compartment and the 96-well plate was removed from the receiver tray. Donor and receiver wells for inhibition or donor (containing substrate) and receiver (without substrate) wells for substrate studies were then prepared for bi-directional flux studies. For the probe substrate transport assays, HBSS in each donor well contained one of the following probe substrates: BCRP, 2 μM [^3H]-prazosin; or P-gp, 100 nM [^3H]-quinidine. For positive control inhibition assays, HBSS contained the reference inhibitor in both donor and receiver wells, with the probe substrate only in donor wells. […] These samples were counted on a 1450 Microbeta (PerkinElmer). For samples containing test articles, samples were quantitated using LC-MS.
For BCRP and P-gp, apparent permeability Papp was determined using the equation Papp=(Vr/(A×C0))×(Cr/Δt) whereby Papp is the apparent permeability, Vr is the volume of the receiver compartment (mL), C0 is the initial concentration of the donor solution, A is the monolayer area (cm^2), Cr is the receiver well concentration at the end of the incubation, and Δt represents the change in time from t = 0 (s). The efflux ratio (ER) was determined by dividing Papp in the B→A direction by that in the A→B direction as: ER=Papp(B→A)/Papp(A→B).

OCT2 = system: T2, OCT2; experiment: OCT2 substrate uptake study in MDCK cells; format: in vitro ADME; conditions: 10 μM ASO
T2 construct: expressed in transfected cells; host or cells: MDCK-II
Method: A 96-well cell culture plate containing a monolayer of MDCK-II cells grown on a permeable support and a corresponding receiver tray was used. The basolateral compartment of the culture plate and wells were washed with warm HBSS three times, with wells of the culture plate serving as the apical compartment. The wash was aspirated by adding 150 μL of 37°C HBSS to both compartments. Plates were incubated at 37°C with orbital shaking at 60 rpm for 15 min for OAT1, OAT3, OCT1, OCT2, OATP1B1, and OATP1B3 (±5 min). The pre-incubation buffer from both compartments was aspirated and 150 μL of the following was added to the basal compartment. For the probe substrate transport assay, HBSS in each well contained one of following probe substrates (positive control for transport), OCT1, 2 μM [^3H]-MPP^+; OCT2, 10 μM [^14C]-metformin; OAT1, 2 μM [^3H]-p-aminohippurate; OAT3, 10 μM [^3H]-p-aminohippurate; OATP1B1, 2 μM [^3H]-estradiol-17 β-D-glucuronide; and OATP1B3, 2 μM [^3H]-cholecystokinin octapeptide (CCK-8). […] Inhibition studies contained HBSS in each well, the probe substrate, and 100 μM of each test article, whereas substrate studies contained HBSS in each well and 10 μM of each test article. […] Samples containing probe substrate were added to 200 μL of scintillation fluid and counted on a 1450 Microbeta (PerkinElmer), whereas samples containing the test article were kept frozen. Test article concentrations, including control samples, were evaluated by an LC-MS method.
Signal to noise for probe substrates was calculated by dividing the uptake of the probe substrate in transporter-expressing cells by the uptake of probe substrate in control cells not expressing the transporter of interest. Percent inhibition was calculated by dividing the net-transporter-mediated substrate uptake in the presence of the test article or the reference inhibitor by the net-transporter-mediated substrate uptake in the absence of the inhibitor according to the equation: %inhibition=100−(100×(transporter-mediateduptake)withinhibitor/(transporter-mediateduptake)withoutinhibitor).

ISIS 304801: 20-mer (5-10-5) 2′-MOE gapmer PS backbone antisense inhibitor of apoC-III, sequence AGCTTCTTGTCCAGCTTTAT (sugars from the 5' end e5 d10 e5, all phosphorothioate, methylation of C not given here)
Efflux ratio, P-gp (P-gp): ≤ 2.0
OCT2-mediated uptake relative to corresponding controls (OCT2): < 2 fold

ISIS 420915: 20-mer 2′-MOE gapmer PS backbone antisense inhibitor of transthyretin, sequence TCTTGGTTACATGAAATCCC (all phosphorothioate, sugars by position and methylation of C not given here; 2'-MOE gapmer)
Efflux ratio, P-gp (P-gp): ≤ 2.0
OCT2-mediated uptake relative to corresponding controls (OCT2): < 2 fold

ISIS 681257: 20-mer 2′-MOE gapmer PS/PO mixed backbone ASO conjugated to 5′-trishexylamino GalNAc3, targets Lp(a), sequence TGCTCCGTTGGTGCTTGTTC (5' {GalNAc3}, sugars by position and backbone not given here; 2'-MOE gapmer with mixed PS/PO backbone)
Efflux ratio, P-gp (P-gp): ≤ 2.0
OCT2-mediated uptake relative to corresponding controls (OCT2): < 2 fold
